These results are taken from US20240018122A1, “PYRIDAZINYL AMINO DERIVATIVES AS ALK5 INHIBITORS” (CHIESI FARMACEUTICI S.P.A., priority 2020, published 2024).

The first assay deals with human ALK5 (Homo sapiens (Human), UniProt P36897). As to the kind of experiment: ADP-GLO Kinases assay, inhibitory activity on ALK5.
Chain of human ALK5 (P36897 80-503 limits assumed): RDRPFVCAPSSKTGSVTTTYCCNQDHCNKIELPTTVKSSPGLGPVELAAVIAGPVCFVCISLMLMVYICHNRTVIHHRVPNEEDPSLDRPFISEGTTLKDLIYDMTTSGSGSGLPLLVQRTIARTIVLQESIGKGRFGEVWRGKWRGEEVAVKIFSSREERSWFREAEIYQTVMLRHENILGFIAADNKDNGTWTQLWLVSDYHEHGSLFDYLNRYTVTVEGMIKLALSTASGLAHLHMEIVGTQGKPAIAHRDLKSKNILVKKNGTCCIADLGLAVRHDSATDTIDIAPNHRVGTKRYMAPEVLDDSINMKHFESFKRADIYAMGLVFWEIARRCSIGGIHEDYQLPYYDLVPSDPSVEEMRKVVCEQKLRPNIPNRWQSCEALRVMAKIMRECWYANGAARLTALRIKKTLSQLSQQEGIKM
Conditions: not given
Type of assay: biochemical. Background: In ADP-Glo the light output rises with the ADP produced.
In the case of `Cc1nnc(-c2cc(Cl)ccc2F)cc1Nc1ccnc2cc(OC(=O)N3C[C@H]4C[C@@H]3CN4C)ccc12` [Example 159, 4-{[6-(5-chloro-2-fluorophenyl)-3-methylpyridazin-4-yl]amino}quinolin-7-yl (1R,4R)-5-methyl-2,5-diazabicyclo[2.2.1]heptane-2-carboxylate], the IC50 (commonly the concentration that gives 50% inhibition) is less than 1 nM.
As to `O=C(Oc1ccc2c(Nc3cnnc(-c4cc(Cl)ccc4F)c3)ccnc2c1)N1CCN(CCO)CC1` [Example 57, 4-{[6-(5-Chloro-2-Fluorophenyl)Pyridazin-4-Yl]Amino}Quinolin-7-Yl 4-(2-Hydroxyethyl)Piperazine-1-Carboxylate], the IC50 was 1 to 5 nM.
In the case of `CN1CCC(CN2CCN(C(=O)Oc3ccc4c(Nc5cnnc(-c6cc(Cl)ccc6F)c5)ccnc4c3)CC2)CC1` [Example 100, 4-{[6-(5-Chloro-2-Fluorophenyl)Pyridazin-4-Yl]Amino}Quinolin-7-Yl 4-[(1-Methylpiperidin-4-Yl)Methyl]Piperazine-1-Carboxylatate], the half-maximal inhibitory concentration (IC50) lay within 1 to 5 nM.

The same assay, now with this note: purified recombinant human ALK5 2.6 nM, TGFβ1 peptide substrate, 25° C, 150 min incubation, ADP-Glo detection; read-out: ALK5 IC50.
Take `Cc1nnc(-c2cc(Cl)ccc2F)cc1Nc1ccnc(NC(=O)N2CCC3(CCN(C)C3)CC2)c1` [Example 150, N-(4-{[6-(5-Chloro-2-Fluorophenyl)-3-Methylpyridazin-4-Yl]Amino}Pyridin-2-Yl)-2-Methyl-2,8-Diazaspiro[4.5]Decane-8-Carboxamide]: the IC50 was less than 1 nM.
As for `CN1CCN(CC(=O)Nc2cc(Nc3cc(-c4cc(Cl)ccc4F)nnc3CO)ccn2)CC1` [Example 176, N-(4-{[6-(5-chloro-2-fluorophenyl)-3-(hydroxymethyl)pyridazin-4-yl]amino}pyridin-2-yl)-2-(4-methylpiperazin-1-yl)acetamide], the IC50 is less than 1 nM.
The same measure, in the same setting: as for `CN1C[C@@H]2CN(CCOc3ccc4c(Nc5cnnc(-c6cc(Cl)ccc6F)c5)ccnc4c3)C[C@@H]2C1` [Example 55, Cis N-[6-(5-Chloro-2-Fluorophenyl)Pyridazin-4-Yl]-7-(2-{5-Methyl-Octahydropyrrolo[3,4-c]Pyrrol-2-Yl}Ethoxy)Quinolin-4-Amine], the figure is less than 1 nM; as for `CN1CCN(CCOc2cc3nccc(Nc4cnnc(-c5cc(Cl)ccc5F)c4)c3cc2O)CC1` [Example 148, 4-{[6-(5-Chloro-2-Fluorophenyl)Pyridazin-4-Yl]Amino}-7-[2-(4-Methylpiperazin-1-Yl)Ethoxy]Quinolin-6-Ol], less than 1 nM; as for `COC(=O)N(C)CCN1CCN(CCC(=O)Nc2cc(Nc3cc(-c4cc(Cl)ccc4F)nnc3C)ccn2)CC1` [Example 105, methyl N-[2-(4-{2-[(4-{[6-(5-chloro-2-fluorophenyl)-3-methylpyridazin-4-yl]amino}pyridin-2-yl)carbamoyl]ethyl}piperazin-1-yl)ethyl]-N-methylcarbamate], less than 1 nM.
Same read-out and setting: as for `Fc1ccc(Cl)cc1-c1cc(Nc2ccnc3cc(OCCN4CCN(CC(F)(F)F)CC4)ccc23)cnn1` [Example 41, N-[6-(5-Chloro-2-Fluorophenyl)Pyridazin-4-Yl]-7-{2-[4-(2,2,2-Trifluoroethyl)Piperazin-1-Yl]Ethoxy}Quinolin-4-Amine], the figure is less than 1 nM.
Still for that read-out and setting: as for `Cc1nnc(-c2cc(Cl)ccc2F)cc1Nc1ccnc(NC(=O)CN2CCNCC2)c1` [Example 164, N-(4-{[6-(5-Chloro-2-Fluorophenyl)-3-Methylpyridazin-4-Yl]Amino}Pyridin-2-Yl)-2-(Piperazin-1-Yl)Acetamide], the figure is less than 1 nM.
With `Cc1nnc(-c2cc(Cl)ccc2F)cc1Nc1ccnc(NC(=O)CCCN2CCCN(C)CC2)c1` [Example 161, N-(4-{[6-(5-Chloro-2-Fluorophenyl)-3-Methylpyridazin-4-Yl]Amino}Pyridin-2-Yl)-4-(4-Methyl-1,4-Diazepan-1-Yl)Butanamide], the IC50 was less than 1 nM.
On the same count and under the same terms, as for `CN1CCC(Oc2ccc3c(Nc4cnnc(-c5cc(Cl)ccc5F)c4)ccnc3c2)CC1` [Example 73, N-[6-(5-Chloro-2-Fluorophenyl)Pyridazin-4-Yl]-7-[(1-Methylpiperidin-4-Yl)Oxy]Quinolin-4-Amine], the figure is less than 1 nM; as for `Cc1nnc(-c2cc(Cl)ccc2F)cc1Nc1ccnc(NC(=O)CCN2CCN(C)CC2CO)c1` (stereo not shown) [Example 163, N-(4-{[6-(5-chloro-2-fluorophenyl)-3-methylpyridazin-4-yl]amino}pyridin-2-yl)-3-[2-(hydroxymethyl)-4-methylpiperazin-1-yl]propanamide], less than 1 nM.
Still for that read-out and setting: as for `CN1CCC(CCNC(=O)c2ccc3c(Nc4cnnc(-c5cc(Cl)ccc5F)c4)ccnc3c2)CC1` [Example 14, 4-{[6-(5-Chloro-2-Fluorophenyl)Pyridazin-4-Yl]Amino}-N-[2-(1-Methylpiperidin-4-Yl)Ethyl]Quinoline-7-Carboxamide], the figure is less than 1 nM; as for `CN1CCN(CCOc2ccc3c(Nc4cnnc(-c5cc(Cl)ccc5F)c4)ccnc3c2)C1` [Example 90, N-[6-(5-Chloro-2-Fluorophenyl)Pyridazin-4-Yl]-7-[2-(3-Methylimidazolidin-1-Yl)Ethoxy]Quinolin-4-Amine], less than 1 nM.
On the same count and under the same terms, as for `Cc1nnc(-c2cc(Cl)ccc2F)cc1Nc1ccnc(NC(=O)[C@H]2C[C@@H](N3CCN(C)CC3)C2)c1` [Example 162, Cis N-(4-{[6-(5-Chloro-2-Fluorophenyl)-3-Methylpyridazin-4-Yl]Amino}Pyridin-2-Yl)-3-(4-Methylpiperazin-1-Yl)Cyclobutane-1-Carboxamide], the figure is less than 1 nM; as for `Cc1nnc(-c2cc(C(F)F)ccc2F)cc1Nc1ccnc(NC(=O)CCN2CCN(C)CC2)c1` [Example 190, N-[4-({6-[5-(Difluoromethyl)-2-Fluorophenyl]-3-Methylpyridazin-4-Yl}Amino)Pyridin-2-Yl]-3-(4-Methylpiperazin-1-Yl)Propenamide], less than 1 nM; as for `CC(=O)NCCN1CCN(CCOc2ccc3c(Nc4cnnc(-c5cc(Cl)ccc5F)c4)ccnc3c2)CC1` [Example 69, N-[2-(4-{2-[(4-{[6-(5-Chloro-2-Fluorophenyl)Pyridazin-4-Yl]Amino}Quinolin-7-Yl)Oxy]Ethyl}Piperazin-1-Yl)Ethyl]Acetamide], less than 1 nM.
As to `Cc1nnc(-c2cc(Cl)ccc2F)cc1Nc1ccnc(NC(=O)C2CCN(C)CC2)c1` [Example 88, N-(4-{[6-(5-Chloro-2-Fluorophenyl)-3-Methylpyridazin-4-Yl]Amino}Pyridin-2-Yl)-1-Methylpiperidine-4-Carboxamide], the IC50 was in the range of 1 to 5 nM.
Consider `COC(=O)CCCc1nnc(-c2cc(Cl)ccc2F)cc1Nc1ccnc(NC(=O)CCN2CCN(C)CC2)c1` [Example 191, Methyl 4-(6-(5-Chloro-2-Fluorophenyl)-4-((2-(3-(4-Methylpiperazin-1-Yl)Propanamido)Pyridin-4-Yl)Amino)Pyridazin-3-Yl)], for which the IC50 is less than 1 nM.
Still for that read-out and setting: as for `Cc1nnc(-c2cc(Cl)ccc2F)cc1Nc1ccnc(NC(=O)CCN2CCN(C)C(C(=O)O)C2)c1` (stereo not shown) [Example 95, 4-{2-[(4-{[6-(5-chloro-2-fluorophenyl)-3-methylpyridazin-4-yl]amino}pyridin-2-yl)carbamoyl]ethyl}-1-methylpiperazine-2-carboxylic acid], the figure is less than 1 nM; as for `Cc1nnc(-c2cc(Cl)ccc2F)cc1Nc1ccnc(NC(=O)CCCN2CCN(C)CC2)c1` [Example 65, N-(4-{[6-(5-Chloro-2-Fluorophenyl)-3-Methylpyridazin-4-Yl]Amino}Pyridin-2-Yl)-4-(4-Methylpiperazin-1-Yl)Butanamide], less than 1 nM; as for `CN1CCN(C(=O)c2cc3c(Nc4cnnc(-c5cc(Cl)ccc5F)c4)ccnc3[nH]2)CC1` [Example 38, 6-(5-Chloro-2-Fluorophenyl)-N-[2-(4-Methylpiperazine-1-Carbonyl)-1H-Pyrrolo[2,3-13]Pyridin-4-Yl]Pyridazin-4-Amine], 1 to 5 nM.
On the same count and under the same terms, as for `CN1CCN(CCCOc2ccc3c(Nc4cnnc(-c5cc(Cl)ccc5F)c4)ccnc3c2)CC1` [Example 29, N-[6-(5-Chloro-2-Fluorophenyl)Pyridazin-4-Yl]-7-[3-(4-Methylpiperazin-1-Yl)Propoxy]Quinolin-4-Amine], the figure is less than 1 nM; as for `COC(=O)CN1CCN(CC(=O)Nc2cc(Nc3cc(-c4cc(Cl)ccc4F)nnc3C)ccn2)CC1` [Example 96, methyl 2-(4-{[(4-{[6-(5-chloro-2-fluorophenyl)-3-methylpyridazin-4-yl]amino}pyridin-2-yl)carbamoyl]methyl}piperazin-1-yl)acetate], less than 1 nM; as for `O=C(CCN1CCCN(CC(F)(F)F)C1)Nc1cc(Nc2cnnc(-c3cc(Cl)ccc3F)c2)ccn1` [Example 59], 1 to 5 nM.
For `CNCCNCCC(=O)Nc1cc(Nc2cc(-c3cc(Cl)ccc3F)nnc2C)ccn1` [Example 93, N-(4-{[6-(5-Chloro-2-Fluorophenyl)-3-Methylpyridazin-4-Yl]Amino}Pyridin-2-Yl)-3-{[2-(Methylamino)Ethyl]Amino}Propanamide], the IC50 is less than 1 nM.
On to `CN1CC2CC1CN2C(=O)Oc1ccc2c(Nc3cnnc(-c4cc(Cl)ccc4F)c3)ccnc2c1` (stereo not shown) [Example 137, 4-{[6-(5-Chloro-2-Fluorophenyl)Pyridazin-4-Yl]Amino}Quinolin-7-Yl 5-Methyl-2,5-Diazabicyclo[2.2.1]Heptane-2-Carboxylate], for which the IC50 was less than 1 nM.
The same measure, in the same setting: as for `Cc1nnc(-c2cc(Cl)ccc2F)cc1Nc1ccnc(NC(=O)CCN2CCN(CCNS(C)(=O)=O)CC2)c1` [Example 136, N-(4-{[6-(5-Chloro-2-Fluorophenyl)-3-Methylpyridazin-4-Yl]Amino}Pyridin-2-Yl)-3-[4-(2-Methanesulfonamidoethyl)Piperazin-1-Yl]Propanamide], the figure is less than 1 nM; as for `CN1CCN(CCNC(=O)c2c[nH]c3nccc(Nc4cnnc(-c5cc(Cl)ccc5F)c4)c23)CC1` [Example 21, 4-{[6-(5-Chloro-2-Fluorophenyl)Pyridazin-4-Yl]Amino}-N-[2-(4-Methylpiperazin-1-Yl)Ethyl]-1H-Pyrrolo[2,3-13]Pyridine-3-Carboxamide], 1 to 5 nM; as for `O=C(NCCN1CCOCC1)c1ccc2c(Nc3cnnc(-c4cc(Cl)ccc4F)c3)ccnc2c1` [Example 4, 4-{[6-(5-Chloro-2-Fluorophenyl)Pyridazin-4-Yl]Amino}-N-[2-(Morpholin-4-Yl)Ethyl]Quinoline-7-Carboxamide], less than 1 nM.
